Where two headings read alike, the source gives them in different places.
Experiments:
CETP [1] = target: T1, CETP (Homo sapiens, UniProt P11597); test: CETP fluorescence test with human plasma; format: biochemical; parameters: tissue Sigma P9523; host or cells: human plasma; conditions: section (b), Example 1 = formula (Ib), 37° C., 24 h
T1 sequence (P11597 18-493): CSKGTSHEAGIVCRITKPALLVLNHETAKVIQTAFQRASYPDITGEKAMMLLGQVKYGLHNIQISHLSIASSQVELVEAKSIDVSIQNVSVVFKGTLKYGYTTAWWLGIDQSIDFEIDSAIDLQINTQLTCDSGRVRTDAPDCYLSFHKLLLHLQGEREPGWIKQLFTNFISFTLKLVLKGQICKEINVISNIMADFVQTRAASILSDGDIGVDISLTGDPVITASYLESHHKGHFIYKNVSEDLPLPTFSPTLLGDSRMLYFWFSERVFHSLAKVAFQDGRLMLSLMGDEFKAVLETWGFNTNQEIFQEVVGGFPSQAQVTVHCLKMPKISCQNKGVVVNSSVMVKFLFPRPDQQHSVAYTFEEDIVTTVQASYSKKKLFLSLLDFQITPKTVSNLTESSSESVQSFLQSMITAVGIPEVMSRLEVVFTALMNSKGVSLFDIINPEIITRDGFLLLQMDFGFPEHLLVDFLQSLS
Method: For the production of the donor liposomes, 1 mg of cholesteryl 4,4-difluoro-5,7-dimethyl-4-bora-3a,4a-diaza-s-indacene-3-dodecanoate (cholesteryl BODIPY® FL C12, Molecular Probes) is dissolved in 600 μl of dioxane with 5.35 mg of triolein and 6.67 mg of phosphatidylcholine with gentle warming in an ultrasonic bath and this solution is added very slowly with ultrasonication to 63 ml of 50 mM tris/HCl, 150 mM NaCl, 2 mM EDTA buffer pH 7.3 at room temperature. The suspension is then ultrasonicated under an N2 atmosphere for 30 minutes in the Branson ultrasonic bath at about 50 watts, the temperature being kept at about 20° C.
6 μl (12% v/v) of donor liposomes and 1 μl (2% v/v) of a solution of the substance to be investigated in DMSO are added to 42 μl (86% v/v) of human plasma (Sigma P9523), and the mixture is incubated at 37° C. for 24 h.
The change in the fluorescence at 510/520 nm (gap width 2.5 nm) is a measure of the CE transfer; the inhibition of the transfer in comparison to the control batch without substance is determined. […]

CETP [2] = target: T1, CETP; test: CETP fluorescence test with enriched CETP; format: biochemical; parameters: tissue Sigma P9523; host or cells: human plasma; conditions: section (b), Example 1 = formula (Ib); enriched CETP from human plasma, 37° C., 4 hours
Method: CETP is obtained in partially purified form from human plasma by differential centrifugation and column chromatography and used for the test. To this end, human plasma is adjusted to a density of 1.21 g per ml using NaBr and centrifuged at 4° C. at 50 000 rpm for 18 h. The bottom fraction (d>1.21 g/ml) is applied to a Sephadex® Phenyl-Sepharose 4B (Pharmacia) column, washed with 0.15 M NaCl/0.001 M tris-HCl pH 7.4 and then eluted with distilled water. The CETP-active fractions are pooled, dialysed against 50 mM sodium acetate pH 4.5 and applied to a CM-Sepharose® column (Pharmacia). The mixture is then eluted using a linear gradient (0-1 M NaCl). The pooled CETP fractions are dialysed against 10 mM tris/HCl pH 7.4 and then further purified by chromatography on a Mono Q® column (Pharmacia).
Measurement of the CETP-catalysed transfer of a fluorescent cholesterol ester between liposomes [modified according to the procedure of Bisgaier et al., J. Lipid Res. 34, 1625 (1993)]: […]
The change in the fluorescence at 485/535 nm is a measure of the CE transfer; the inhibition of the transfer in comparison to the control batch without substance is determined. […]

CETP [3] = target: T1, CETP; test: CETP-SPA test; format: biochemical; parameters: are added to 42 μl (86% v/v) of human plasma (Sigma P9523); tissue Sigma P9523; host or cells: human plasma; conditions: section (b), Example 1 = formula (Ib); 37° C., 18 h
Method: 50 ml of fresh human EDTA plasma is adjusted to a density of 1.12 using NaBr and centrifuged at 4° C. in a Ty 65 rotor at 50 000 rpm for 18 h. The upper phase is used for the obtainment of cold LDL. […]
For testing of the CETP activity, the transfer of ^3H-cholesterol ester from human HD lipoproteins to biotinylated LD lipoproteins is measured. The reaction is ended by addition of streptavidin-SPA® beads (Amersham) and the transferred radioactivity is determined directly in a liquid scintillation counter. […]

CETP [4] = target: T1, CETP; test: Ex vivo activity on transgenic hCETP mice (serum CETP activity); format: in vivo; parameters: from tissue; host or cells: serum of transgenic hCETP mice (Dinchuk et al.); conditions: mouse, po
Method: 10 μl of buffer and 2 μl of serum are added to 80 μl of test mix, and the mixture is incubated at 37° C. for 4 h.
The change in the fluorescence at 485/535 nm is a measure for the CE transfer; the inhibition of the transfer is comparison to the control batch without substance is determined.
To test for CETP-inhibitory activity, the substances are administered orally using a stomach tube to transgenic hCETP mice bred in-house [Dinchuk et al. BBA 1295-301 (1995)]. To this end, male animals are randomly assigned to groups having an equal number of animals, as a rule n=4, one day before the start of the experiment. Before administration of the substance, blood is taken from each mouse by puncture of the retro-orbital venous plexus for the determination of its basal CETP activity in the serum (T1). The test substance is then administered to the animals using the stomach tube. At specific times after administration of the test substance, blood is taken from the animals by puncture a second time (T2), in general 16 or 24 h after substance administration, but if appropriate this can also be carried out at another time.
In order to be able to assess the inhibitory activity of a substance, for each time, i.e. 16 or 24 hours, a corresponding control group is employed whose animals only receive the formulating agent without substance. In the control animals, the second blood sampling per animal is carried out as in the substance-treated animals in order to be able to determine the change in the CETP activity without inhibitor over the corresponding experimental time interval (16 or 24 h).
After termination of the clotting, the blood samples are centrifuged and the serum is removed by pipette. For the determination of the CETP activity, the cholesteryl ester transport over 4 h is determined. To this end, in general 2 μl of serum are employed in the test batch and the test is carried out as described under B-I.2.3.
The differences in the cholesteryl ester transport [pM CE/h (T2)−pM CE/h (T1)] are calculated for each animal and averaged in the groups. A substance which at one of the times reduces the cholesteryl ester transport by >20% is regarded as active.
The change in the fluorescence at 485/535 nm is a measure for the CE transfer; the inhibition of the transfer in comparison to the control batch without substance is determined.
To test for CETP-inhibitory activity, the substances are administered orally using a stomach tube to transgenic hCETP mice bred in-house [Dinchuk et al., BBA, 1295-1301 (1995)]. To this end, male animals are randomly assigned to groups having an equal number of animals, as a rule n=4, one day before the start of the experiment. […]

Row | IC50 (CETP [1]) | IC50 (CETP [2]) | Compound | IC50 (CETP [3]) | inhibition at 3 mg/kg (CETP [4]; section (a), Example 1 = formula (Ia), 16 h after administration, read-out: % inhibition at 3 mg/kg, 16 h) | inhibition at 3 mg/kg (CETP [4]; section (a), Example 1 = formula (Ia), 24 h after administration, read-out: % inhibition at 3 mg/kg, 24 h) | inhibition at 3 mg/kg (CETP [4]; section (b), Example 1 = formula (Ib), 16 h after administration, read-out: % inhibition at 3 mg/kg, 16 h) | inhibition at 3 mg/kg (CETP [4]; section (b), Example 1 = formula (Ib), 24 h after administration, read-out: % inhibition at 3 mg/kg, 24 h)
1 | 84 nM | 25 nM | CC(C)c1nc2c(c(C3CCCC3)c1[C@@H](F)c1ccc(C(F)(F)F)cc1)[C@@H](O)CC(C)(C)C2 [Example 1] |  |  |  |  | 
2 |  |  | CC1(C)Cc2nc(C3CCCC3)c([C@@H](F)c3ccc(C(F)(F)F)cc3)c(C3CCCCC3)c2[C@@H](O)C1 [Example 1] | 12 nM | 50% | 24% | 49% | 39%

— patent US8124775B2, “Chemical compound and its use” (Bayer Pharma Aktiengesellschaft, priority 2004, dated 2012)
